Measured values: patent publication US12150945B2, “Liver disease” (Lipocine Inc., priority 2018, dated 2024)

Tests used:
Assay type in all cases: in vivo, human
[1] = Serum testosterone pharmacokinetics (24-hour PK sampling, LC-MS/MS), phase 3 oral testosterone undecanoate trial of Example 1; conditions: Week 52; single blood draw 3 to 6 hours post morning dose
Protocol: (§1) Oral testosterone therapy was evaluated in a multicenter, phase 3, randomized, open-label, active controlled, parallel-group study that included a 13-week efficacy phase and a 52-week safety phase. An active arm in which subjects received T gel was included for safety evaluation only.
Males 18 through 80 years old with a documented diagnosis of primary hypogonadism (congenital or acquired) or hypogonadotropic hypogonadism (congenital or acquired) and with morning serum T<300 ng/dL based on 2 consecutive blood samples obtained between 0600 and 1000 on 2 separate days at approximately the same time were eligible to participate. Subjects were either naïve to T therapy or completed an adequate washout of T therapy (eg, 12 weeks after intramuscular androgen injections excluding TU injections which required a longer waiting period; 4 weeks after topical or buccal androgens; and 3 weeks after oral androgens). Exclusion criteria included abnormal prostate digital rectal examination with palpable nodule(s) or International Prostate Symptom Score (IPSS)>19 points; body mass index ≥38 kg/m^2, clinically significant laboratory values (baseline hemoglobin <11.5 or >16.5 g/dL, hematocrit <35% or >54%, serum transaminases >2.5 times upper limit of normal, serum bilirubin >2.0 mg/dL, creatinine >2.0 mg/dL, prostate specific antigen [PSA]>2 ng/mL, prolactin >17.7 ng/mL); history of seizures or convulsions; any surgical procedure that might interfere with gastrointestinal motility, pH, or absorption; stroke or myocardial infarction within 5 years; current or suspected prostate or breast cancer; severe, untreated, obstructive sleep apnea; long QT syndrome or unexplained sudden death in first-degree relative; concurrent medication use that could impact absorption, distribution, metabolism, or excretion of TU or place subject at risk for treatment with T; and dose changes of antihypertensive, lipid-lowering, or hypoglycemic agents within previous 3 months.
(§2) Subjects were randomized in a 2:1 ratio to oral testosterone undecanoate or T gel. oral testosterone undecanoate subjects started at a dose of 225 mg TU (“testosterone undecanoate”) taken twice daily (total daily dose: 450 mg TU) every 12 hours. For optimal lymphatic absorption oral testosterone undecanoate must be administered with a meal. Therefore, subjects were instructed to administer oral testosterone undecanoate after a standard meal (defined as a meal consisting of 800 to 1400 calories with approximately 20% to 35% fat content). The oral testosterone undecanoate dose was titrated at Weeks 4 and 8, if necessary, based on results of intensive 24-hour PK blood sampling obtained at Weeks 3 and 7, respectively. Oral testosterone undecanoate subjects stayed at the clinic overnight during each intensive PK blood sampling period. […] Oral testosterone undecanoate dose levels permitted during the study were 150 mg BID, 225 mg BID, and 300 mg BID. Data collected during an intensive 24-hour PK sampling overnight stay at Week 13 were used for efficacy analysis; dose was not adjusted at this visit. Additional outpatient visits were conducted at Weeks 26, 39, and 52 during which single blood draws were performed 3 to 6 hours post morning dose. Dose was not adjusted during these visits.
Serum levels of T, TU, dihydrotestosterone (DHT), dihydrotestosterone undecanoate (DHTU), and estradiol (E2) were evaluated in oral testosterone undecanoate treated subjects. […] Sex hormone binding globulin (SHBG) was evaluated in data from all subjects. Serum T concentrations at screening were measured using chemiluminescence immunoassay kits. Hormone assays for pharmacokinetic assessment were analyzed at PPD Bioanalytical Laboratory in Richmond, Virginia Serum samples were analyzed for T, DHT, TU, DHTU, and E2 using a validated liquid chromatography-tandem mass spectrometry (LC-MS/MS) assay.

hematocrit, hemoglobin = test: Androgenic parameters (hematocrit, hemoglobin), change from baseline to end of study, safety set, trial of Example 1
Protocol: as §1, §2
(§3) T gel (ANDROGEL®) (testosterone gel for topical use) 1.62%, AbbVie, Chicago, Illinois, US) was supplied in non-aerosol, metered dose pumps that deliver 20.25 mg T per complete pump actuation. T gel was dosed according to product labeling. Subjects receiving T gel completed outpatient visits at Weeks 2 and 4 with single blood draws to determine titration and at Weeks 3 and 5 for dose changes, if necessary. They also completed an outpatient visit at Week 7 for safety assessments and at Weeks 13, 26, 39 and 52 during which single blood samples were obtained 3 to 6 hours after the morning dose. Dose was not adjusted during these visits. Overnight clinic stays were not required for T gel subjects.
(§4) Safety endpoints included adverse events (AEs), physical examination findings, vital signs, electrocardiograms (ECGs), and clinical laboratory tests. AEs were classified using the Medical Dictionary for Regulatory Activities (Version 16.1). Safety endpoints were summarized using descriptive statistics. Lab parameters were evaluated using two sample t-tests comparing change from baseline to end of study (EOS) across oral testosterone undecanoate and T gel subjects with p-values <0.05 considered statistically significant.

liver fat = test: Liver Fat Study: liver fat by MRI-PDFF in hypogonadal males treated with LPCN 1144 (Example 6); conditions: for Mean relative liver fat % change: 16 weeks of treatment
Protocol: In an a prospective design open-label, multi-center, single arm ‘Liver Fat Study’ evaluating LPCN 1144 (oral testosterone undecanoate) treatment in hypogonadal patients, baseline % liver fat was assessed via MRI-PDFF in a subset of study patients (N=36).
This example is part of an ongoing Liver Fat Study which is an open-label, multi-center, single arm study evaluating LPCN 1144 treatment (e.g., androgen therapy, testosterone therapy, oral testosterone ester, or 225 mg testosterone undecanoate orally) in a cohort of 36 hypogonadal males (NCT03868059). Subjects with at least 10% baseline liver fat were evaluated which is indicative of subjects with NAFLD with the potential to have NASH. Interim results of seven of the nine subjects in the Liver Fat Study with baseline liver fat of at least 10% are presented as two subjects were unable to schedule an eight-week MRI-PDFF visit. Baseline mean liver fat of these seven subjects was 21.0%.
An MRI-PDFF study of 36 male hypogonadal subjects (having 2 morning testosterone levels of 300 ng/dL or less) was performed as part of an ongoing trial. Basic baseline labs including liver function tests (e.g., AST & ALT) and serum triglycerides were collected and analyzed. It was found by non-linear regression, that BMI (ALT, AST, serum Triglyceride) was associated with liver fat (P<0.006). It was found by non-linear regression, that serum triglyceride levels (obesity, hypertension, type 2 diabetes) were associated with liver fat (P<0.006).

liver function enzymes = test: Liver function enzymes (ALT, AST, ALP, GGT, bilirubin), change from baseline to end of study, trial of Example 1
Protocol: as §1, §2, §3, §4

[2] = Safety Set, baseline to end of study
[3] = interim, eight-week MRI-PDFF, seven subjects with baseline liver fat of at least 10%
[4] = 4th quartile patients based on lab parameter level, 1 year study

## CCCCCCCCCCC(=O)O[C@H]1CC[C@H]2[C@@H]3CCC4=CC(=O)CC[C@]4(C)[C@H]3CC[C@]12C [oral testosterone undecanoate, testosterone undecanoate]
[1]
  Average serum T levels: 538 ± 545 ng/dL
hematocrit, hemoglobin; 52-week safety phase
  Elevated hematocrit (>54%), number of subjects: 8 subjects
  subjects withdrawn for elevated hematocrit (>54%): 1.4%
hematocrit, hemoglobin; Safety Set, N = 314, baseline to end of study
  Hematocrit, mean (SD) change from baseline to end of study: 2.54 (3.41) %
hematocrit, hemoglobin; [2]
  APTT, mean (SD) change from baseline to end of study: 0.61 (4.07)
  Hemoglobin, mean (SD) change from baseline to end of study: 7.2 (10.65) g/L
  PSA, mean (SD) change from baseline to end of study: 0.27 (0.97) mcg/L
  Platelets, mean (SD) change from baseline to end of study: 8.5 (31.34) 10^9/L
  Prothrombin time, mean (SD) change from baseline to end of study: 0.31 (1.14) sec
hematocrit, hemoglobin; in vivo
  hemoglobin, pretreatment to EOS: Small and similar increases
Liver fat; baseline liver fat of 8% or greater
  Mean relative liver fat % change: −42%
Liver fat; baseline liver fat of 10% or greater
  Mean relative liver fat % change: −40%
Liver fat; subjects having NAFLD (baseline liver fat of 5% or greater)
  Mean relative liver fat % change: −33%
Liver fat; end of study
  NAFLD resolved (baseline liver fat greater than or equal to 5% going to less than 5% at end of study), % of subjects: 48%
  mean relative liver fat change in patients with NAFLD resolution: −55%
Liver fat; end of study, greater than or equal to 5% baseline liver fat
  responder rate (% of patients with at least a 30% relative reduction in liver fat from baseline): 71%
Liver fat; end of study, greater than or equal to 8% baseline liver fat
  responder rate (% of patients with at least a 30% relative reduction in liver fat from baseline): 80%
Liver fat; end of study, greater than or equal to 10% baseline liver fat
  responder rate (% of patients with at least a 30% relative reduction in liver fat from baseline): 70%
Liver fat; [3]
  relative mean liver fat reduction from baseline: 38%
  responder rate: at least a 4.1% absolute reduction in liver fat from baseline: 86%
  responder rate: at least a 29% reduction in liver fat from baseline: 71%
Liver fat; interim, eight-week MRI-PDFF, seven subjects with baseline liver fat of at least 10%, baseline mean 21.0%
  absolute mean reduction from baseline of liver fat (MRI-PDFF): 7.6%
Liver function enzymes; [4]
  ALP, mean change from baseline: −10.2 U/L
  ALP, mean change from baseline, %: −10.4%
  ALT, mean change from baseline: −10.0 U/L
  ALT, mean change from baseline, %: −16.7%
  AST, mean change from baseline: -6.3 U/L
  AST, mean change from baseline, %: −16.6%
  Albumin, mean change from baseline: -2.5 g/L
  Albumin, mean change from baseline, %: −3.1%
  Bilirubin, mean change from baseline: -0.18 mg/dL
  Bilirubin, mean change from baseline, %: −20.5%
  Creatinine, mean change from baseline: 0.01 mg/dL
  Creatinine, mean change from baseline, %: 0.8%
  GGT, mean change from baseline: −7.0 U/L
  GGT, mean change from baseline, %: −7.4%
Liver function enzymes; [2]
  ALT, mean (SD) change from baseline to end of study: −3.07 (11.22) U/L
  AST, mean (SD) change from baseline to end of study: −1.5 (7.52) U/L
  Alkaline phosphatase, mean (SD) change from baseline to end of study: −4.1 (13.33) U/L
  Bilirubin, mean (SD) change from baseline to end of study: −0.43 (3.66) mcmol/L
  GGT, mean (SD) change from baseline to end of study: −2.0 (12.50) U/L
